Assay results published in patent US20010041716A1, “Compositions and methods for locally treating inflammatory diseases” (priority 1999, published 2001).
Values after ≈ are worked out from the molar mass of the structure shown. Like-named read-outs stand apart in the source and are kept apart here. Marks after values point to notes of the source that are not given here.

Tests used:
[1] = 25° C.
[2] = for Lag time TL = SD / Permeability coefficient P ± SD × 10^−3: pH 6
Experimental: Skin Preparation and Permeation: The human cadaver skin used in the permeation studies was obtained from the Anatomical Donation Program at the University of Michigan. Vertical Franz diffusion cells with a 4 ml capacity receptor compartment and a 0.8 cm^2 diffusion area were used in the permeation studies. The epidermal layer of the skin was mounted carefully onto the lower half of the cells of the difflusion apparatus with the stratum corneum facing up. The receptor compartments were filled with isotonic phosphate buffer (pH 6.4). The temperature of the cell system was maintained at 32° C. by circulating water from a constant temperature water bath through the jacket of the lower compartment of each cell assembly. To begin an experiment, the donor compartment was charged with 300 μl of fresh prepared saturated solution of the drug and covered immediately with Parafilm to prevent any significant evaporation of volatile components of the applied medium during the absorption experiment. At predetermined times, samples were taken and were directly assayed by HPLC to determine the drug concentration of each. Care was taken to maintain skin conditions.
The permeability coefficient for a given run was calculated from Fick's law of diffuision: [formula]
dC/dt is the steady-state slope of a plot of the amount of substance which had penetrated the skin against time in terms of jig/h. It was determined by taking the ratio of the total amount permeated in an interval of time to the length of the time interval.
A is the difflusional area, which was 0.8 cm^2.
ΔC is the concentration differential existing across the membrane. This was effectively equal to the saturation concentration in the donor phase (μg/ml) as, through total exchange sampling, a near zero receiver concentration (sink condition) was closely approximated. AC is, in effect, the thermodynamic force driving mass transfer. The maximum driving force is seen at the saturation solubility (excluding supersaturation).
VR is the volume of the receiver compartment (4 ml).
The permeation parameters (flux, J; lag time, TL and permeability coefficient, P) of thalidomide and its N-alkyl analogs from their saturated aqueous solutions (pH 6.0) and an ethanol/water/octanol vehicle are summarized in Table 4. The permeation data were plotted as the cumulative amount of drug penetrated through skin as a function of time. The steady-state flux was determined from the slope of the linear portion of the cumulative amount-time plot. The lag time (TL) was determined by extrapolating the linear portion of the curve to its intersection with the time axis. […] A bar plot of the mean steady-state flux and standard deviations (SD) for thalidomide and its N-alkyl analogs from water can be seen in FIG. 5. […] Typical cumulative amount permeated-time profiles for thalidomide and its N-alkyl analogs from the ethanol/water/octanol (Formulation C) vehicle are shown in FIG. 6.

[3] = Experimental: Differential Thermal Analysis: The heat of fusion (ΔHf) and the entropy of fusion (ΔSf) of thalidomide and its N-alkyl analogs were determined with a Perkin-Elmer DSC7 Differential Scanning Calorimeter (DSC), which was calibrated with an indium standard.
Using this surmise, the solubility parameters for all the solutes were calculated. […] In each case the solutions are considered ideal at the peak of their parabolas.

[4] = n-octanol / phosphate buffer (pH 6.4)
TNFα = conditions: PBMCs stimulated in vitro with LPS; previous studies; cited from earlier work

Structure (SMILES)	Solubility, Hexane ± SD [1] [µg/mL]	Solubility, Water (pH 6.4) ± SD [1] [μg/ml]	Solubility, Water (pH 6.4) ± SD ([1]; listed as N-methyl thalidomide) [μg/ml]	Maximum steady-state flux [2] [μg/cm^2/h]	Lag time TL = SD [2] [h]	Permeability coefficient P ± SD × 10^−3 [2]	Activity of solid phase a2^s, ΔCp = 0 [3]	Activity of solid phase a2^s, ΔCp = ΔSp [3]	Ln X2,ideal, ΔCp = 0 [3]	Ln X2,ideal, ΔCp = ΔSr [3]	Solubility parameter δ2 (Hexane), ΔCp = 0 [3]	Solubility parameter δ2 (Hexane), ΔCp = ΔSr [3]	Koct ± SD (octanol/water partition coefficient) [4]	Solubility, Water (pH 6.4) ± SD ([1]; listed as thalidomide) [μg/ml]	Inhibition of TNFα production (TNFα)
CN1C(=O)CCC(N2C(=O)c3ccccc3C2=O)C1=O (stereo not shown) [N-Methyl Thalidomide, N-methyl thalidomide]	90 ± 0 (≈ 331 µM)	275.9 ± 6.39	276	11.47	2.8 ± 0.5	1.17 ± 0.22 × 10^−3 (cm/h)	1.03 × 10^−1	1.54 × 10^−1	−2.27	−1.87	12.2 (cal/cm^3)^½	12.3 (cal/cm^3)^½	14.1 ± 1.05		
CCCCCN1C(=O)CCC(N2C(=O)c3ccccc3C2=O)C1=O (stereo not shown) [N-Pentyl Thalidomide, N-pentyl thalidomide]	220 ± 10 (≈ 670 µM)	57.3 ± 1.46			3 ± 1.6	19.68 ± 6.31 × 10^−3 (cm/h)	1.29 × 10^−1	1.64 × 10^−1	−2.05	−1.81	11.2 (cal/cm^3)^½	11.2 (cal/cm^3)^½	129 ± 1.05		
O=C1CCC(N2C(=O)c3ccccc3C2=O)C(=O)N1 (stereo not shown) [Thalidomide, a-phthalimidoglutarimide, reference compound]	0.1 ± 0 (≈ 0.387 µM)	52.1 ± 1.49			2.2 ± 1.4	<0.16 ± 0.00^b) × 10^−3 (cm/h)	1.29 ×	8.07 ×	−6.65	−4.82	13.2 (cal/cm^3)^½	13.7 (cal/cm^3)^½	3.09 ± 1.03	52	partially inhibit TNFα production
